The results in this text go back to ChEMBL document CHEMBL1125962, “A new class of leukotriene biosynthesis inhibitors: The development of ((4-(4-chlorophenyl)-1-(4-(2-quinolinylmethoxy)phenyl)butyl)thio)acetic acid, L-674,636” (Bioorg Med Chem Lett, 1991).

Data set [1] is described as follows: Inhibition of leukotriene synthesis was assessed from inhibitory activity against human PMN. Type of data set: functional.
The nature of data set [2]: Compound was tested for bioavailability in squirrel monkey. Type of data set: ADME, organism-based, Saimiri sciureus. The note with it: in vivo.
The species named for data set [3] is Rattus norvegicus. As to the kind of experiment: The effective dose was measured by using rat pleurisy assay. Format: functional.
For data set [4], the species on record is Rattus norvegicus. Nature of the data set: The effective dose was measured in antigen-induced dyspnea in inbred hyperreactive rats. Format: functional.
A short description of data set [5]: Percentage blockade of ascaris-induced bronchoconstriction by the compound was determined at a dose of 1 mg/kg in conscious squirrel monkey. Type of data set: functional.
The nature of data set [6]: Compound was tested for bioavailability in rats. Type of data set: ADME, organism-based. To be noted: rat, in vivo.

The IC50 is the concentration needed to halve the response being measured. The compound `OC(CCCc1ccccc1)c1ccc(OCc2ccc3ccccc3n2)cc1` (stereo unspecified) displayed an IC50 in data set [1] of 30 nM.

`O=C(O)CO/N=C(\CCCc1ccccc1)c1ccc(OCc2ccc3ccccc3n2)cc1`: the IC50 in data set [1] amounted to 80 nM.

Usually bioavailability stands for dose-corrected exposure relative to a reference, in per cent. A word on the ED50: it is the midpoint of the dose-response relation. For the compound `O=C(O)CSC(CCCc1ccc(Cl)cc1)c1ccc(OCc2ccc3ccccc3n2)cc1` (stereo unspecified), the bioavailability in data set [2] turned out to be 93%; in data set [6], 100%. Further, the results for the ED50 in data set [3] and in data set [4] were 1.6 mg/kg and 0.035 mg/kg, respectively. The same compound registered a Blockade in data set [5] of 80%. For the same compound, in data set [1], the IC50 was 7 nM.

For the compound `CCCCCC(O)c1ccc(OCc2ccc3ccccc3n2)cc1` (stereo unspecified), the IC50 in data set [1] is 90 nM.

For the compound `O=C(O)CSC(CCCc1ccccc1)c1ccc(OCc2ccc3ccccc3n2)cc1` (stereo unspecified) [AZD-4769], in data set [1], inhibition was half-maximal at 3 nM (IC50).

`CCCCCC(O)c1cccc(OCc2ccc3ccccc3n2)c1` (stereo unspecified) [REV-5901] yielded an IC50 in data set [1] of 1800 nM.
